The target in assay [1] is BCL-XL (Homo sapiens, UniProt Q07817). Kind of assay: Protein-protein interaction assay BCL-XL/Bad BH3 peptide, TR-FRET (BCL-XL assay, Assay 2). It is filed as binding. The conditions noted are these: His-BCL-XL / Bad BH3 peptide, median.
In assay [2] the target is BCL-2 (Homo sapiens, UniProt P10415). Kind of assay: Protein-protein interaction assay BCL-2/Bad BH3 peptide, TR-FRET (BCL-2 assay, Assay 3). It is filed as binding. The conditions noted are these: His-BCL-2 / Bad BH3 peptide, median.
Experimental: The dose-dependent inhibition by the compounds described in this invention of the interaction between BCL-2 and the BH3 domain of Bad (both human) was determined using a steady state binding competition assay with time-resolved fluorescence energy transfer (TR-FRET) readout. For that purpose BCL-2 (amino acids 1-211, C-terminal fused to a hexahistidine (6×His) tag (SEQ ID 5) and a synthetic Bad BH3-derived peptide of sequence Biotin-PEG2-PEG2-[sequence]-Nle-[sequence]-amide (SEQ ID 4) served as protein receptor and tracer ligand respectively. The recombinant BCL-2 protein (expressed in E. coli) was purchased from BPS Bioscience (San Diego, Calif., USA). The Bad BH3-derived peptide can be obtained from e.g. Biosyntan (Berlin, Germany).
For that, 100-fold concentrated DMSO solutions were prepared by serial dilutions (1:3.4) of a 2 mM stock solution in a clear, 384-well microtiter plate (Greiner Bio-One, Frickenhausen, Germany). From there, 50 nl were transferred in a dark test plate (Greiner Bio-One, Frickenhausen, Germany). The assay was initiated by addition of 2 μl of a 2,5-fold concentrated His-BCL-2 solution (usually for a 1 nM end concentration in 5 μl reaction volume) in aqueous assay buffer [50 mM Tris/HCl pH 7, 100 mM sodium chloride (NaCl), 50 mM potassium fluoride (KF), 0.005% Tween-20, 2 mM DTT, 0.1% bovine gamma globulin (BGG)] to the compounds in the assay plate. This was followed by a 10-minute incubation step at 22° C. for pre-equilibration of the putative complex between His-BCL-2 and the compounds.
The mixture was incubated in the dark for one hour at 22° C. and then overnight at 4° C. The formation of BCL-2/Bad complexes was determined by measuring the resonance energy transfer of the anti-His-Eu-cryptate antibody to the streptavidin-XL665 present in the reaction. For that purpose, the fluorescence emission at 620 nm and 665 nm after excitation at 330-350 nm was measured in a TR-FRET measuring instrument, for instance a Rubystar or a Pherastar (both from BMG Lab Technologies, Offenburg, Germany) or a Viewlux (Perkin-Elmer). The ratio of the emission at 665 nm and at 622 nm was used as indicator of the amount of BCL-2/Bad complexes present.
The resulting data (ratio) were normalized, taking 0% inhibition as the mean value of control measurements (usually 32 data points) where all reagents were included. In this case 50 nl DMSO were used instead of compounds. […] IC50 values were determined by regression analysis based on a 4 parameter equation (minimum, maximum, IC50, Hill; Y=Max+(Min−Max)/(1+(X/IC50)^Hill) using the Screener Software (Genedata).
In assay [3] the target is T1, MCL1 protein (Homo sapiens, UniProt Q07820).
T1 construct: this assay uses full length endogenous MCL1 protein at mitochondria outer membrane; endogenous in cells; host or cells: RKO colon cancer cell line
Kind of assay: PIxEL: protein-protein interaction in permeabilized cells by ELISA (Assay 5). Type of assay: cell-based. The conditions noted are these: permeabilized RKO cells, biotin-BIM BH3 peptide 0.2 μM, serum free. As to the method: PIxEL: Protein-Protein Interaction in Permeabilized Cells by ELISA
Most MCL1 protein molecules are localized at the mitochondria outer membrane and sequester pro-apoptotic proteins through binding of their BCL2 homology domain 3 (BH3 domain). MEB buffer (150 mM mannitol, 10 mM HEPES pH 7.5, 50 mM KCl, 20 μM EDTA, 20 μM EGTA, 5 mM potassium succinate, 0.1% protease-free BSA (SIGMA) with low dose digitonin (0.002%) permeabilizes plasma membrane while leaves live mitochondria, where MCL1 maintains its native localization and conformation. Unlike biophysical assays (e.g. TR-FRET) that use truncated recombinant MCL1 protein, this assay uses full length endogenous MCL1 protein at mitochondria outer membrane. It measures the interaction between MCL1 protein and biotinylated BIM BH3 peptide. Compounds can compete with BIM BH3 peptide to bind to MCL1 protein.
On day 1, RKO colon cancer cell line cells were plated at 0.8 million cells/ml, 100 μl/well in 96-well flat bottom TC plates (Corning). […] Each plate was tapped to make sure liquid covering entire bottom of wells and incubate at 37° C. overnight.
On the second day, MCL1 antibody was washed from ELISA plate. 250 μl Odyssey® Blocking Buffer (PBS) (Li-Cor) was added to each well, incubated at room temperature for at least 1 hour, then washed once with 250 μl 1×PBST. Plates with RKO cells were gently washed once with 100 μl/well PBS, once with 100 μl/well MEB buffer without digitonin, then 100 μl of MEB buffer with 0.002% digitonin was gently added to each well. Compounds were added with HP Tecan compound dispenser in 3-fold dilution series, highest dose 30 μM, 10-dose per compound in quadruplicates. Biotin-BIM peptide (synthesized by 21st Century) was added with HP Tecan compound dispenser at 0.2 μM immediately after the addition of compounds. Plates were rocked for 1 h at room temperature. Then MEB buffer was aspirated and 50 μl of CHAPS buffer (50 mM Tris-Cl, pH 7.4, 150 mM NaCl, 1% CHAPS, 1 mM EDTA, 1 mM EGTA, complete protease inhibitors (Roche), PhosSTOP (Roche)) was added to each well. Plates were rocked for 1 hour at 4° C., then 45 μl cell lysate from each well were transferred to ELISA plates coated with MCL1 antibody. Plates were incubated overnight in the cold room with rocking.
On the third day, ELISA plates were washed once with 250 μl 1×PBST. Streptavidin-poly-HRP (Thermo Fisher Scientific) was diluted to 20 ng/ml in Odyssey blocking buffer plus 0.05% Triton-100, and 100 μl was added to each well of the ELISA plate. Plates were incubated at RT for 1 hour with rocking, then washed with 100 μL 1×PBST for 3 times. Each SuperSignal ELISA Femto Maximum Sensitivity substrate was added to a 50-ml tube and mixed, then 100 μl of mixed substrate was added to each well. Plates were shaken for 1 minute then luminescence was measured by Envision plate reader […]. Signal of each well were normalized by no-compound control and no-cell control. IC50 was calculated using Graphic Pad PRISM software.
A general note: In an ELISA, binding on a coated surface is turned into a signal by an enzyme label.

Assay [4] concerns SUDHL5. Kind of assay: Anti-proliferative effect in SUDHL5 cells, CellTiter-Glo (Assay 7). It is filed as cell-based. The method in brief: (§1)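 CellTiter-Glo luminescence after 72 h compound exposure at 37 °C; a parallel time-zero plate was read the same way. IC50 derived relative to day 0 signal and DMSO control.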
On the technique in general: In ATP-based viability assays light output follows the ATP content of the culture.

Assay [5] relates to MV-4-11. Kind of assay: Anti-proliferative effect in MV-4-11 cells, CellTiter-Glo (Assay 7). It is filed as cell-based. Put shortly: as §1
Assay [6] concerns A2780. Kind of assay: Anti-proliferative effect in A2780 cells, CellTiter-Glo (Assay 7). It is filed as cell-based. As to conditions: A2780, 72 hours incubation, CellTiter-Glo, several values per example, read-out: Antiproli A2780. Put shortly:
as §1

Assay [7] deals with MCL-1 (Homo sapiens, UniProt Q07820, K194A/K197A/R201A). Kind of assay: Protein-compound interaction assay, surface plasmon resonance (SPR assay, Assay 8). Type of assay: binding. From the text: Protein-Compound Interaction Assay (SPR Assay)
The ability of the compounds described in this invention to bind to MCL-1 may be determined using surface plasmon resonance (SPR). This allows for the quantification of binding in terms of the equilibrium dissociation constant (KD [M]), as well as association and dissociation rate constants (kon [1/M 1/s] and koff [1/s], respectively). The measurements may be performed using Biacore® T200 or Biacore® S200 instruments (GE Healthcare).
Briefly, carboxymethylated dextran biosensor chips (Series S Sensor Chip CM5, GE Healthcare) were activated with 1-ethyl-3-(3-dimethylaminopropyl)-carbodiimide hydrochloride (EDC) and N-hydroxysuccinimide (NHS) according to the supplier's instructions. MBP-MCL-1 was diluted in 1×PBS-P+ (GE Healthcare) and injected on the activated chip surface. Subsequently, a solution of 1 M ethanolamine-HCl (GE Healthcare) was injected to block unreacted groups, resulting in approximately 400-2500 response units (RU) of immobilized protein. A reference surface was generated by treatment with NHS-EDC and ethanolamine-HCl. […] Compounds were injected for 60 s followed by a dissociation time of up to 1000 s.
The double-referenced sensorgrams were fit to a simple reversible Langmuir 1:1 reaction mechanism as implemented in the Biacore® T200 and S200 evaluation software (T200 evaluation software version 2.0 and S200 evaluation software version 1.0, GE Healthcare).

The mark [8] stands for this setting: Homo sapiens, SU-DHL-5, 72 h, SUDHL5, 72 hours incubation, CellTiter-Glo, median, read-out: Antiproli SUDHL5 [M] (median).
Where [9] appears, read: MV-4-11, 72 hours incubation, CellTiter-Glo; several values per example; read-out: Antiproli MV-4-11.
Setting [10] is: KD [M], SPR, immobilized MBP-MCL-1, 25° C., geometric mean.
[11] abbreviates: read-out: koff [1/s], SPR, immobilized MBP-MCL-1, 25° C., geometric mean.
The mark [12] stands for this setting: read-out: kon [1/M 1/s], SPR, immobilized MBP-MCL-1, 25° C., geometric mean.
The mark [13] stands for this setting: median, read-out: PIxEL [M] (median).
Setting [14] is: SUDHL5, 72 hours incubation, CellTiter-Glo, median, read-out: Antiproli SUDHL5 [M] (median).
[15] abbreviates: SPR, immobilized MBP-MCL-1, 25° C., geometric mean, read-out: KD.
[16] abbreviates: SPR, immobilized MBP-MCL-1, 25° C., geometric mean.

Consider 5 compounds from patent US20210253598A1, “ARYL ANNULATED MACROCYCLIC INDOLE DERIVATIVES” (priority 2017, published 2021).

Values joined by “and” are separate entries in the source; they are usually repeats but may differ in a detail not shown here. Identical values can stand only once. Counter-ions that a name gives are not always drawn. Like-named read-outs stand apart in the source and are kept apart here. Bounds are passed on as bounds.

MCL-1, sequence (Q07820 173-321 K194A/K197A/R201A, looked up): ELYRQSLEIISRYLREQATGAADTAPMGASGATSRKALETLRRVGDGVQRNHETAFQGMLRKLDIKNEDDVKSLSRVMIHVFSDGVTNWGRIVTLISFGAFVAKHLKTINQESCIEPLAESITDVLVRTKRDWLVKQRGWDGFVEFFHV
T1 sequence (Q07820 whole entry): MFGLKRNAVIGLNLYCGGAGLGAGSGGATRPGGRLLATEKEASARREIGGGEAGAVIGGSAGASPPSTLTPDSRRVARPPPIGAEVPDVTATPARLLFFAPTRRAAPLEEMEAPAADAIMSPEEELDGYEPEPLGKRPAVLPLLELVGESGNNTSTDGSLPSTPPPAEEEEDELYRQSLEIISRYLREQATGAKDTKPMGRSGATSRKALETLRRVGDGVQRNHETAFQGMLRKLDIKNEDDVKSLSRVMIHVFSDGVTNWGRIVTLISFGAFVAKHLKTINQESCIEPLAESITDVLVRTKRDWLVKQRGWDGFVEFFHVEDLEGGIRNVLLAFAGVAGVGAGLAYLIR
BCL-2, sequence (P10415 1-211): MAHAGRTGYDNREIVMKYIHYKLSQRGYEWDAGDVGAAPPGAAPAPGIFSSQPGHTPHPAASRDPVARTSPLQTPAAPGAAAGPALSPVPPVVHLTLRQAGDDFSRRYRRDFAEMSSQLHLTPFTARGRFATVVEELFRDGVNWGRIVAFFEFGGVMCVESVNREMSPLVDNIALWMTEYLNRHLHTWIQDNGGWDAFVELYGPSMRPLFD
BCL-XL, sequence (Q07817 1-212): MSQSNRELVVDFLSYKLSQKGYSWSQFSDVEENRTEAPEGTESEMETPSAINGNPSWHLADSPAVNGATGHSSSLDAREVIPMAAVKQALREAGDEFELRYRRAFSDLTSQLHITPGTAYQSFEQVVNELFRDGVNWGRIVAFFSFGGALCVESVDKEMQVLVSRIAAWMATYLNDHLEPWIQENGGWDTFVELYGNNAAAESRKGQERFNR

Consider `Cc1c2c(nn1C)COCc1ccccc1Cn1c(C(=O)O)c(CCCOc3cccc4cc(F)ccc34)c3ccc(Cl)c-2c31` (single isomer, unassigned; enantiomer 1) [Example 49, (−)-3-Chloro-17-{3-[(6-fluoronaphthalen-1-yl)oxy]propyl}-4,5-dimethyl-5,7,9,14-tetrahydroindolo[7,1-fg]pyrazolo[3,4-d][2,8]benzoxazacycloundecine-16-carboxylic acid-N-ethylethanamine Salt (Enantiomer 1)], for which the IC50 in assay [1] is > 20000 nM; in assay [2], ≥ 21800 nM; in assay [3] (PIxEL [M] (median)), 7.88e-07 M; in assay [4] (setting [8]), 1e-06 M; in assay [5] (Homo sapiens, MV4-11, 72 h, MV-4-11, 72 hours incubation, CellTiter-Glo; several values per example; read-out: Antiproli MV-4-11), 3090 nM; in assay [5] (setting [9]), 3410 nM and 3780 nM. The IC50 in assay [6] was 7620 nM and 5260 nM. Further, the Kd (as a rule, the equilibrium constant for the complex coming apart) in assay [7] (setting [10]) came out at 3e-09 M. The koff in assay [7] (setting [11]) was 0.0058 s⁻¹. In addition, in assay [7] (setting [12]), the kon worked out at 1.9e+06 M⁻¹ s⁻¹.
As to `CCc1nn(CCN2CCOCC2)c2c1-c1c(Cl)ccc3c(CCCOc4cccc5cc(F)ccc45)c(C(=O)O)n(c13)Cc1ccccc1COC2` (single isomer, unassigned; enantiomer 1) [Example 52, (−)-3-Chloro-4-ethyl-17-{3-[(6-fluoronaphthalen-1-yl)oxy]propyl}-6-[2-(morpholin-4-yl)ethyl]-6,7,9,14-tetrahydroindolo[7,1-fg]pyrazolo[3,4-d][2,8]benzoxazacycloundecine-16-carboxylic Acid (Enantiomer 1)], the IC50 in assay [1] is > 20000 nM; in assay [2], > 20000 nM; in assay [3] (setting [13]), 3.68e-07 M; in assay [4] (setting [14]), 5.7e-07 M; in assay [6] it was 2410 nM. Moreover, the Kd in assay [7] (setting [15]) came out at 1.5e-09 M. The koff in assay [7] (read-out: koff [1/s]) came to 0.024 s⁻¹. In assay [7] (read-out: kon [1/M 1/s]), the kon stood at 1.6e+07 M⁻¹ s⁻¹.
Regarding `Cc1c2c(nn1C)COCc1ccccc1Cn1c(C(=O)O)c(CCCOc3cccc4cc(F)ccc34)c3ccc(F)c-2c31` (single isomer, unassigned; enantiomer 1) [Example 65, (−)-3-fluoro-17-{3-[(6-fluoronaphthalen-1-yl)oxy]propyl}-4,5-dimethyl-5,7,9,14-tetrahydroindolo[7,1-fg]pyrazolo[3,4-d][2,8]benzoxazacycloundecine-16-carboxylic acid-N-ethylethanamine Salt (Enantiomer 1)], the IC50 in assay [1] was > 20000 nM; in assay [2], 16900 nM; in assay [3] (PIxEL [M] (median)), 1.04e-06 M; in assay [4] (setting [8]) it was 1.1e-06 M; in assay [6] (Homo sapiens, A2780, 72 h) it was 10100 nM. In assay [7] (setting [10]), this compound displayed a Kd of 1.4e-09 M. In assay [7] (setting [11]), the koff turned out to be 0.011 s⁻¹. In addition, the kon in assay [7] (setting [12]) was found to be 8e+06 M⁻¹ s⁻¹.
Turning to `CCc1c2c(nn1C)COCc1ccccc1Cn1c(C(=O)O)c(CCCOc3cccc4cc(F)ccc34)c3ccc(Cl)c-2c31` (single isomer, unassigned; enantiomer 1) [Example 55, (−)-3-Chloro-4-ethyl-17-{3-[(6-fluoronaphthalen-1-yl)oxy]propyl}-5-methyl-5,7,9,14-tetrahydro-indolo[7,1-fg]pyrazolo[3,4-d][2,8]benzoxazacycloundecine-16-carboxylic Acid N-ethylethanamine Salt (Enantiomer 1)], the IC50 is > 20000 nM in assay [1]; 18000 nM in assay [2]; 3.11e-07 M in assay [3] (PIxEL [M] (median)); 1e-06 M in assay [4] (read-out: Antiproli SUDHL5 [M] (median), SUDHL5, 72 hours incubation, CellTiter-Glo); 964 nM in assay [5] (read-out: Antiproli MV-4-11; MV-4-11, 72 hours incubation, CellTiter-Glo; several values per example). Binding in assay [7] (setting [10]) was put at a Kd of 3.9e-09 M.
Consider `CCNCC.Cc1c2c(nn1C)COCc1ncccc1Cn1c(C(=O)O)c(CCCOc3cccc4ccccc34)c3ccc(Cl)c-2c31` (single isomer, unassigned; enantiomer 1) [Example 43, 3-Chloro-4,5-dimethyl-17-[3-(naphthalen-1-yloxy)propyl]-5,7,9,14-tetrahydropyrazolo-[4′,3′:9,10]pyrido[2′,3′:3,4][1,6]oxazacycloundecino[8,7,6-hi]indole-16-carboxylic acid-N-ethylethanamine Salt (Enantiomer 1)], for which the IC50 was > 20000 nM in assay [1]; > 20000 nM in assay [2]; 2.97e-06 M in assay [3] (setting [13]); 1.2e-06 M in assay [4] (setting [14]); 3230 nM and 2830 nM and 4420 nM in assay [5] (setting [9]); 23400 nM in assay [6]. The “koff” value in assay [7] (setting [16]) worked out at 0.0096 s⁻¹. Also, in assay [7] (setting [16]), the “kon [1/M 1/s]” value is recorded as 5.6E6 1/M 1/s. Besides, the Kd in assay [7] (setting [15]) worked out at 1.7e-09 M.
